Experimental findings from US7018989B2, “Chemical compounds” (University College Cardiff Consultants, LTD, priority 1995, dated 2006) are described below.

Series [1] concerns MSV. In words: Inhibition of MSV (in vitro). Type of series: cell-based, Moloney Sarcoma Virus. The text has this:
(§1) The data columns are, in order: • HIV1 MT4: EC50 in μM for inhibition of HIV-1 in MT4 cells. • HIV2 MT4: EC50 in μM for inhibition of HIV-2 in MT4 cells. • CC50 MT4: CC50 in μM for toxicity to MT-4 cells. • HIV1 CEM: EC50 in μM for inhibition of HIV-1 in CEM cells. • HIV2 CEM: EC50 in μM for inhibition of HIV-2 in CEM cells. • HIV2 CEM-TK-: EC50 in μM for inhibition of HIV-2 in CEM/TK^− cells. • CC50 CEM: CC50 in μM for toxicity to CEM cells. • EC50 MSV: EC50 in μM for inhibition of MSV • MCC MSV: Minimum cytotoxic concentration in MSV assay

Series [2] relates to HIV-2. In words: Inhibition of HIV-2 in CEM cells (giant cell formation). Format: cell-based. The settings on record: read-out: HIV2 CEM: EC50 for inhibition of HIV-2 in CEM cells. As to the method: (§2) Cells were infected with HIV-1 as previously described [Balzarini et al. AIDS (1991), 5, 21–28]. Briefly, 5×10^5 cells per milliliter were infected with HIV-1 or HIV-2 at 100 CCID50 (50% cell culture infective dose) per milliliter of cell suspension. Then 100 μL of the infected cell suspension was transferred to microtiter plate wells and mixed with 100 μL of the appropriate dilutions of the test compounds. After 4 days giant cell formation was recorded microscopically in the HIV-infected cell cultures [CEM], and after 5 days the number of viable cells was determined by trypan blue staining of the HIV-infected cell cultures [MT4].
as §1

Series [3] concerns HIV-1. In words: microbe, parasite or virus in culture. The settings on record: read-out: HIV1 CEM: EC50 for inhibition of HIV-1 in CEM cells. How it is done:
as §2, §1

For series [4], the system named is HIV-2. The series is described as follows: Inhibition of HIV-2 in CEM/TK- cells. Type of series: cell-based. How it is done: as §2, §1
In series [5] the test system is CEM cells. The series is described as follows: Toxicity to CEM cells. Type of series: cell-based, human. As to the method:
as §2, §1

A short description of series [6]: Minimum cytotoxic concentration in MSV assay. Type of series: cell-based. The text has this: The data columns are, in order: • HIV1 MT4: EC50 in μM for inhibition of HIV-1 in MT4 cells. • HIV2 MT4: EC50 in μM for inhibition of HIV-2 in MT4 cells. • CC50 MT4: CC50 in μM for toxicity to MT-4 cells. • HIV1 CEM: EC50 in μM for inhibition of HIV-1 in CEM cells. • HIV2 CEM: EC50 in μM for inhibition of HIV-2 in CEM cells. • HIV2 CEM-TK-: EC50 in μM for inhibition of HIV-2 in CEM/TK^- cells. • CC50 CEM: CC50 in μM for toxicity to CEM cells. • EC50 MSV: EC50 in μM for inhibition of […]: Minimum cytotoxic concentration in MSV assay

Where [7] appears, read: Table 6, mean of two or more repeat experiments.
The mark [8] stands for this setting: Table 6, mean of two or more repeat experiments, read-out: HIV2 CEM-TK-: EC50 for inhibition of HIV-2 in CEM/TK^− cells.

SMILES strings stand for the structures. Like-named read-outs stand apart in the source and are kept apart here.

For orientation: CC50 means the concentration at which the toxic effect on the cells reaches its halfway point. In the case of `COC(=O)[C@@H](C)NP(=O)(OCC1C=CC(n2cc(C)c(=O)[nH]c2=O)O1)Oc1ccccc1` (stereo partly shown) [Compound 932], the EC50 is ≥ 100 µM in series [1] (Table 6), 2 µM in series [2] (setting [7]), 3 µM in series [3] (setting [7]) and 2.5 µM in series [4] (setting [8]). Also, in series [5] (setting [7]), the cytotoxic concentration (CC50) was > 250 µM. Moreover, the “MCC MSV: Minimum cytotoxic concentration in MSV assay” value (“MCC MSV” for short) in series [6] (Table 6) is recorded as >100.

With `Cc1cn(C2C=CC(COP(=O)(Oc3ccccc3)N3CCCC3C(=O)OCc3ccccc3)O2)c(=O)[nH]c1=O` (stereo not shown) [Compound 933], the EC50 in series [1] (Table 6) is > 100 µM; in series [2] (setting [7]), 12.5 µM; in series [3] (setting [7]) it was 35 µM; in series [4] (setting [8]) it was > 50 µM. This molecule displayed a CC50 in series [5] (setting [7]) of 92 µM. In series [6] (Table 6), the “MCC MSV” value is listed as >100.

In the case of `CCOC(=O)CCNP(=O)(OCC1C=CC(n2cc(C)c(=O)[nH]c2=O)O1)Oc1ccccc1` (stereo not shown) [Compound 950], the EC50 in series [1] (Table 6) is > 100 µM; in series [2] (setting [7]), ≥ 250 µM; in series [3] (setting [7]), 250 µM; in series [4] (setting [8]), > 250 µM. In series [5] (setting [7]), the CC50 was > 250 µM. The “MCC MSV” value in series [6] (Table 6) is listed as >100.

Take `CCOC(=O)C(C)NP(=O)(OCC1C=CC(n2cc(C)c(=O)[nH]c2=O)O1)Oc1ccccc1` (stereo not shown) [Compound 951]: the EC50 is 25 µM in series [1] (Table 6), 0.07 µM in series [2] (setting [7]) and 0.1 µM in series [3] (setting [7]). In addition, the CC50 in series [5] (setting [7]) amounted to 55 µM. Further, the “MCC MSV” value in series [6] (Table 6) is >100.

As to `COC(=O)COP(=O)(OCC1C=CC(n2cc(C)c(=O)[nH]c2=O)O1)Oc1ccccc1` (stereo not shown) [Compound 980], the EC50 in series [1] (Table 6) was > 100 µM; in series [2] (setting [7]) it was 50 µM; in series [3] (setting [7]) it was 27.5 µM; in series [4] (setting [8]), > 250 µM. Moreover, the CC50 in series [5] (setting [7]) is > 250 µM. Further, the “MCC MSV” value in series [6] (Table 6) is reported as >100.

As for `CCOC(=O)COP(=O)(OCC1C=CC(n2cc(C)c(=O)[nH]c2=O)O1)Oc1ccccc1` (stereo not shown) [Compound 981], the EC50 in series [1] (Table 6) is > 100 µM; in series [2] (setting [7]) it was 12.5 µM; in series [3] (setting [7]), 12.5 µM; in series [4] (setting [8]), 150 µM. Also, in series [5] (setting [7]), the CC50 was ≥ 250 µM. Moreover, in series [6] (Table 6), the “MCC MSV” value was >100.

As for `COC(=O)C(OP(=O)(OCC1C=CC(n2cc(C)c(=O)[nH]c2=O)O1)Oc1ccccc1)c1ccccc1` (stereo not shown) [Compound 982], the EC50 in series [1] (Table 6) is 14 µM; in series [2] (setting [7]), 0.65 µM; in series [3] (setting [7]), 1.7 µM; in series [4] (setting [8]) it was 15 µM. Besides, the CC50 in series [5] (setting [7]) came to 94 µM. Moreover, in series [6] (Table 6), the “MCC MSV” value is reported as >100.

Turning to `COC(=O)CC(NP(=O)(OCC1C=CC(n2cc(C)c(=O)[nH]c2=O)O1)Oc1ccccc1)C(=O)OC` (stereo not shown) [Compound 1078], the EC50 in series [1] (Table 6) amounted to 31.4 µM; in series [2] (setting [7]) it was 0.65 µM; in series [3] (setting [7]), 0.55 µM; in series [4] (setting [8]), 0.33 µM. Further, the CC50 in series [5] (setting [7]) was 209 µM. In series [6] (Table 6), the “MCC MSV” value is >100.

In the case of `Cc1cn(C2C=CC(COP(=O)(O)NC(CC(=O)O)C(=O)O)O2)c(=O)[nH]c1=O` (stereo not shown) [Compound 1079], the EC50 in series [1] (Table 6) was determined as 9.3 µM; in series [2] (setting [7]), 2.5 µM; in series [3] (setting [7]), 1.6 µM; in series [4] (setting [8]) it was 70 µM. The CC50 in series [5] (setting [7]) was ≥ 250 µM. Also, the “MCC MSV” value in series [6] (Table 6) is reported as >100.

Turning to `COC(=O)CCC(NP(=O)(OCC1C=CC(n2cc(C)c(=O)[nH]c2=O)O1)Oc1ccccc1)C(=O)OC` (stereo not shown) [Compound 1081], the EC50 in series [1] (Table 6) was found to be 88.8 µM; in series [2] (setting [7]), 5.33 µM; in series [3] (setting [7]), 8 µM; in series [4] (setting [8]), 16 µM. In addition, the CC50 in series [5] (setting [7]) is ≥ 250 µM. Moreover, the “MCC MSV” value in series [6] (Table 6) is >100.

Regarding `Cc1cn(C2C=CC(COP(=O)(O)NC(CCC(=O)O)C(=O)O)O2)c(=O)[nH]c1=O` (stereo not shown) [Compound 1083], the EC50 in series [1] (Table 6) was 54.6 µM; in series [2] (setting [7]), 5.5 µM; in series [3] (setting [7]), 8.5 µM; in series [4] (setting [8]) it was > 250 µM. Moreover, the cytotoxic concentration (CC50) in series [5] (setting [7]) is ≥ 250 µM. Moreover, in series [6] (Table 6), the “MCC MSV” value was >100.

On to `COC(=O)C(C)NP(=O)(OC[C@@H]1CC[C@H](n2cnc3c(N)ncnc32)O1)Oc1ccccc1` (stereo partly shown) [Compound 1093, 2′,3′-dideoxy Adenosine 5′-(phenylmethoxyalaninyl) phosphoramidate], for which the EC50 worked out at 1.95 µM in series [1] (MSV); 0.035 µM in series [2] (CEM cells, HIV-2); 0.016 µM in series [3] (CEM cells, HIV-1); 0.055 µM in series [4] (CEM/TK- cells, HIV-2, read-out: HIV2 CEM-TK-: EC50 for inhibition of HIV-2 in CEM/TK- cells). In series [5] (CEM cells), this molecule gave a CC50 of 2.57 µM. Moreover, the “MCC MSV” value in series [6] (MSV assay) is given as >20.

Regarding `Cc1cn(C2C=CC(COP(=O)(O)N[C@H](C)C(=O)O)O2)c(=O)[nH]c1=O` (stereo partly shown) [Compound 1095], the EC50 was determined as 0.42 µM in series [1] (Table 6), 1.6 µM in series [2] (setting [7]), 1.3 µM in series [3] (setting [7]) and 10 µM in series [4] (setting [8]). Moreover, in series [5] (setting [7]), the CC50 is > 250 µM. Further, the “MCC MSV” value in series [6] (Table 6) was >100.

For `COC(=O)C(C)NP(=O)(O)OCC1C=CC(n2cc(C)c(=O)[nH]c2=O)O1` (stereo not shown) [Compound 1129], the EC50 in series [1] (Table 6) was determined as 47.4 µM; in series [2] (setting [7]) it was 4.5 µM; in series [3] (setting [7]), 2 µM; in series [4] (setting [8]), 50 µM. In addition, in series [5] (setting [7]), the 50% cytotoxic concentration (CC50) was > 250 µM. Further, in series [6] (Table 6), the “MCC MSV” value is on record as >100.

For the molecule `Cc1cn(C2C=CC(COP(=O)(O)O)O2)c(=O)[nH]c1=O` (stereo not shown) [Compound 1131], the EC50 is 6.7 µM in series [1] (Table 6), 0.6 µM in series [2] (setting [7]), 0.4 µM in series [3] (setting [7]) and 50 µM in series [4] (setting [8]). Moreover, in series [5] (setting [7]), the half-maximal cytotoxic concentration (CC50) is ≥ 250 µM. Further, in series [6] (Table 6), the “MCC MSV” value was >100.

Take `CCOC(=O)CN(C)P(=O)(OC[C@@H]1C=C[C@H](n2cc(C)c(=O)[nH]c2=O)O1)Oc1ccccc1` (stereo partly shown) [Compound 1133, 2′,3′-dideoxy-2′,3′-didehydrothymidine 5′-(phenylethoxysarcosinyl phosphate)]: the EC50 in series [1] (Table 6) is > 100 µM; in series [2] (setting [7]) it was 87.5 µM; in series [3] (setting [7]) it was 75 µM; in series [4] (setting [8]), > 250 µM. In series [5] (setting [7]), the half-maximal cytotoxic concentration (CC50) was ≥ 250 µM. For the same molecule, the “MCC MSV” value in series [6] (Table 6) is listed as >100.

Take `COP(=O)(NC(C)C(=O)OCc1ccccc1)OCC1C=CC(n2cc(C)c(=O)[nH]c2=O)O1` (stereo not shown) [Compound 1135]: the EC50 was > 100 µM in series [1] (Table 6), 15 µM in series [2] (setting [7]), 10 µM in series [3] (setting [7]) and 17.5 µM in series [4] (setting [8]). For the same molecule, the 50% cytotoxic concentration (CC50) in series [5] (setting [7]) was > 250 µM. Besides, the “MCC MSV” value in series [6] (Table 6) is recorded as >100.

For `Cc1cn(C2C=CC(COP(=O)(O)NC(C)C(=O)OCc3ccccc3)O2)c(=O)[nH]c1=O` (stereo not shown) [Compound 1137], the EC50 in series [1] (Table 6) stood at 15.7 µM; in series [2] (setting [7]) it was 1.6 µM; in series [3] (setting [7]) it was 0.95 µM; in series [4] (setting [8]), 8 µM. Further, the CC50 in series [5] (setting [7]) was ≥ 250 µM. In addition, the “MCC MSV” value in series [6] (Table 6) is >100.

Consider `COC(=O)C(Cc1ccccc1)NP(=O)(OCC1OC(n2cc(C)c(=O)[nH]c2=O)CC1N=[N+]=[N-])Oc1ccccc1` (stereo not shown) [Cpd 941], for which the EC50 is > 100 µM in series [1] (MSV); > 50 µM in series [2] (CEM cells, HIV-2); > 50 µM in series [3] (CEM cells, HIV-1). This molecule also gave a CC50 in series [5] (CEM cells) of 115 µM. Moreover, the “MCC MSV” value in series [6] (MSV assay) is on record as >100.
